Test results taken from US20210261512A1, “NOVEL COMPOUNDS” (INFLAZOME LIMITED, priority 2018, published 2021).

Target: NLRP3 (Homo sapiens, UniProt Q96P20)
Assay: THP-1 cells pyroptosis assay
Type: cell-based
Set-up: Seed THP-1 cells (25,000 cells/well) containing 1.0 μg/ml LPS; host or cells: THP-1
Settings: LPS 1.0 μg/ml, nigericin 5 μM, resazurin readout, 10 μM top dose (Example 2: top dose of 30 μM)
Description: THP-1 cells (ATCC #TIB-202) were grown in RPMI containing L-glutamine (Gibco #11835) supplemented with imM sodium pyruvate (Sigma #S8636) and penicillin (100 units/ml)/streptomycin (0.1 mg/ml) (Sigma #P4333) in 10% Fetal Bovine Serum (FBS) (Sigma #F0804). The cells were routinely passaged and grown to confluency (˜10^6 cells/ml). On the day of the experiment, THP-1 cells were harvested and resuspended into RPMI medium (without FBS). The cells were then counted and viability (>90%) checked by Trypan blue (Sigma #T8154). Appropriate dilutions were made to give a concentration of 625,000 cells/ml. To this diluted cell solution was added LPS (Sigma #L4524) to give a 1 μg/ml Final Assay Concentration (FAC). 40 μl of the final preparation was aliquoted into each well of a 96-well plate. The plate thus prepared was used for compound screening.
The following method step-by-step assay was followed for compound screening. • 1. Seed THP-1 cells (25,000 cells/well) containing 1.0 μg/ml LPS in 40 μl of RPMI medium (without FBS) in 96-well, black walled, clear bottom cell culture plates coated with poly-D-lysine (VWR #734-0317) • 2. Add 5 μl compound (8 points four-fold dilution or 8 points half-log dilution, with 10 μM top dose, unless stated otherwise) or vehicle (DMSO 0.1% FAC) to the appropriate wells • 3. Incubate for 3 hrs at 37° C. and 5% CO2 • 4. Add 5 μl nigericin (Sigma #N7143) (FAC 5 μM) to all wells • 5. Incubate for 1 hr at 37° C. and 5% CO2 • 6. At the end of the incubation period, spin plates at 300×g for 3 mins and remove supernatant • 7. Then add 50 μl of resazurin (Sigma #R^7017) (FAC 100 μM resazurin in RPMI medium without FBS) and incubate plates for a further 1-2 hrs at 37° C. and 5% CO2 • 8. Plates were read in an Envision reader at Ex 560 nm and Em 590 nm • 9. IC50 data is fitted to a non-linear regression equation (log inhibitor vs response-variable slope 4-parameters)

Sequence of NLRP3 (Q96P20 whole entry): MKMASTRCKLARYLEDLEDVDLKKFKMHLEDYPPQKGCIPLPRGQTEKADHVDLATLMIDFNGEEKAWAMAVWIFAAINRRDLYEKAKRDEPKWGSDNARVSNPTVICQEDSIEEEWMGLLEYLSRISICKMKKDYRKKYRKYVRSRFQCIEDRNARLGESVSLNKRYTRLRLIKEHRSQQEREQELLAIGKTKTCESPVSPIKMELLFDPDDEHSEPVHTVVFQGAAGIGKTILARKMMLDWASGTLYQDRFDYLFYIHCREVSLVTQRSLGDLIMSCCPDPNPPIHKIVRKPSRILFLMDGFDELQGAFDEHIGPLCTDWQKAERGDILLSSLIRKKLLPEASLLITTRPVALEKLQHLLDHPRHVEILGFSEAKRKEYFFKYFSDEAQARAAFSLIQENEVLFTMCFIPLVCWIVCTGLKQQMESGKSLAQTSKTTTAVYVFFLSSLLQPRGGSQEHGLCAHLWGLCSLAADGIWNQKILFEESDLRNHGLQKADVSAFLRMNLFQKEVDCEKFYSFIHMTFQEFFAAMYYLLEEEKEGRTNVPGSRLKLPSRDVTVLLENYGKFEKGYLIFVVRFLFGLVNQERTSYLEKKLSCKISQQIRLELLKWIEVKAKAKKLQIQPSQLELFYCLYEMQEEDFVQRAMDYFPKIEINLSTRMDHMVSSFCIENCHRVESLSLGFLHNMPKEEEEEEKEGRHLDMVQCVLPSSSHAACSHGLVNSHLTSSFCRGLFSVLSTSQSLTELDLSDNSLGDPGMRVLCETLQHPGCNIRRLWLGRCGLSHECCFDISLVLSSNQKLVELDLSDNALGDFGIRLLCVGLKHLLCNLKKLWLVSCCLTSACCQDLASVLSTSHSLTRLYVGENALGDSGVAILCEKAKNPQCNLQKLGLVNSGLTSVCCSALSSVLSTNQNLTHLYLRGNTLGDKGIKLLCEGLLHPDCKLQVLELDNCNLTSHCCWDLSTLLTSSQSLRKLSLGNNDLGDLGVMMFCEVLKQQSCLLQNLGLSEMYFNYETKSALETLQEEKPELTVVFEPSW

Structure (SMILES)	IC50
N#Cc1ccc(S(=O)(=O)c2nnc(Nc3c4c(cc5c3CCC5)CCC4)[nH]2)cc1 [Example 184, 4-((5-((1,2,3,5,6,7-hexahydro-s-indacen-4-yl)amino)-4H-1,2,4-triazol-3-yl)sulfonyl)benzonitrile]	≤ 5 µM
CC(C)c1cc(F)cc(-c2ccncc2)c1Nc1nnc(S(=O)(=O)c2ccccc2)[nH]1 [Example 191, N-(4-fluoro-2-isopropyl-6-(pyridin-4-yl)phenyl)-5-(phenylsulfonyl)-4H-1,2,4-triazol-3-amine]	≤ 10 µM
CN1CCC(NS(=O)(=O)c2nnc(Nc3c4c(cc5c3CCC5)CCC4)[nH]2)C1 (stereo not shown) [Example 84, 5-((1,2,3,5,6,7-hexahydro-s-indacen-4-yl)amino)-N-(1-methylpyrrolidin-3-yl)-4H-1,2,4-triazole-3-sulfonamide]	≤ 5 µM
O=S(=O)(Cc1cccnc1)c1nnc(Nc2c3c(cc4c2CCC4)CCC3)[nH]1 [Example 73, N-(1,2,3,5,6,7-hexahydro-s-indacen-4-yl)-3-((pyridin-3-ylmethyl)sulfonyl)-1H-1,2,4-triazol-5-amine]	≤ 10 µM
NC(=O)c1ccc(S(=O)(=O)c2nnc(Nc3c4c(cc5c3CCC5)CCC4)[nH]2)cc1 [Example 327, 4-((5-((1,2,3,5,6,7-hexahydro-s-indacen-4-yl)amino)-4H-1,2,4-triazol-3-yl)sulfonyl)benzamide]	≤ 5 µM
CC(O)Cn1cc(S(=O)(=O)c2nnc(Nc3c4c(cc5c3CCC5)CCC4)[nH]2)cn1 (stereo not shown) [Example 353, 1-(4-((5-((1,2,3,5,6,7-hexahydro-s-indacen-4-yl)amino)-4H-1,2,4-triazol-3-yl)sulfonyl)-1H-pyrazol-1-yl)propan-2-ol]	≤ 5 µM
CS(=O)(=O)c1nnc(Nc2c(-c3ccnc(OCCO)c3)ccc3c2CCC3)[nH]1 [Example 238, 2-((4-(4-((5-(methylsulfonyl)-4H-1,2,4-triazol-3-yl)amino)-2,3-dihydro-1H-inden-5-yl)pyridin-2-yl)oxy)ethan-1-ol]	≤ 10 µM
O=S(=O)(c1cnn(CCO)c1)c1nnc(Nc2c3c(cc4c2CCC4)CCC3)[nH]1 [Example 335, 2-(4-((5-((1,2,3,5,6,7-hexahydro-s-indacen-4-yl)amino)-4H-1,2,4-triazol-3-yl)sulfonyl)-1H-pyrazol-1-yl)ethanol]	≤ 5 µM
NS(=O)(=O)c1cccc(S(=O)(=O)c2nnc(Nc3c4c(cc5c3CCC5)CCC4)[nH]2)c1 [Example 326, 3-((5-((1,2,3,5,6,7-hexahydro-s-indacen-4-yl)amino)-4H-1,2,4-triazol-3-yl)sulfonyl)benzenesulfonamide]	≤ 5 µM
COC1(c2cc(S(=O)(=O)c3nnc(Nc4c5c(cc6c4CCC6)CCC5)[nH]3)nn2C2CC2)COC1 [Example 16, 5-((1-cyclopropyl-5-(3-methoxyoxetan-3-yl)-1H-pyrazol-3-yl)sulfonyl)-N-(1,2,3,5,6,7-hexahydro-s-indacen-4-yl)-4H-1,2,4-triazol-3-amine]	≤ 5 µM
COc1cccc(S(=O)(=O)c2nnc(Nc3c4c(cc5c3CCC5)CCC4)[nH]2)c1 [Example 175, N-(1,2,3,5,6,7-hexahydro-s-indacen-4-yl)-5-((3-methoxyphenyl)sulfonyl)-4H-1,2,4-triazol-3-amine]	≤ 5 µM
CN(C)C1CCC(Oc2cc(-c3ccc4c(c3Nc3nnc(S(C)(=O)=O)[nH]3)CCC4)ccn2)CC1 (stereo not shown) [Example 356, N-(5-(2-((4-(dimethylamino)cyclohexyl)oxy)pyridin-4-yl)-2,3-dihydro-1H-inden-4-yl)-5-(methylsulfonyl)-4H-1,2,4-triazol-3-amine]	≤ 5 µM
O=S(=O)(c1cnn(C2CC2)c1)c1nnc(Nc2c3c(cc4c2CCC4)CCC3)[nH]1 [Example 193, 3-((1-cyclopropyl-H-pyrazol-4-yl)sulfonyl)-N-(1,2,3,5,6,7-hexahydro-s-indacen-4-yl)-1H-1,2,4-triazol-5-amine]	≤ 5 µM
O=S(=O)(NCc1ccccn1)c1nnc(Nc2c3c(cc4c2CCC4)CCC3)[nH]1 [Example 98, 5-((1,2,3,5,6,7-hexahydro-s-indacen-4-yl)amino)-N-(pyridin-2-ylmethyl)-4H-1,2,4-triazole-3-sulfonamide]	≤ 5 µM
N#Cc1cccc(S(=O)(=O)c2nnc(Nc3c4c(cc5c3CCC5)CCC4)[nH]2)c1 [Example 188, 3-((5-((1,2,3,5,6,7-hexahydro-s-indacen-4-yl)amino)-4H-1,2,4-triazol-3-yl)sulfonyl)benzonitrile]	≤ 5 µM
O=S(=O)(NCc1ccccc1)c1nnc(Nc2c3c(cc4c2CCC4)CCC3)[nH]1 [Example 86, N-benzyl-5-((1,2,3,5,6,7-hexahydro-s-indacen-4-yl)amino)-4H-1,2,4-triazole-3-sulfonamide]	≤ 5 µM
CN1CCC2CN(S(=O)(=O)c3nnc(Nc4c5c(cc6c4CCC6)CCC5)[nH]3)CC21 (stereo not shown) [Example 101, N-(1,2,3,5,6,7-hexahydro-s-indacen-4-yl)-5-((1-methylhexahydropyrrolo[3,4-b]pyrrol-5 (1H)-yl)sulfonyl)-4H-1,2,4-triazol-3-amine]	≤ 5 µM

The next lines start with the values.

IC50	Structure (SMILES)
≤ 5 µM	O=S(=O)(c1nnc(Nc2c3c(cc4c2CCC4)CCC3)[nH]1)N1CCC2(CCNC2)CC1 [Example 266, 5-((2,8-diazaspiro[4.5]decan-8-yl)sulfonyl)-N-(1,2,3,5,6,7-hexahydro-s-indacen-4-yl)-4H-1,2,4-triazol-3-amine]
≤ 10 µM	CC(C)CCNS(=O)(=O)c1nnc(Nc2c3c(cc4c2CCC4)CCC3)[nH]1 [Example 82, 5-((1,2,3,5,6,7-hexahydro-s-indacen-4-yl)amino)-N-isopentyl-1H-1,2,4-triazole-3-sulfonamide]
≤ 5 µM	CS(=O)(=O)c1nnc(Nc2c(-c3ccnc(OCc4ccccc4)c3)ccc3c2CCC3)[nH]1 [Example 234, N-(5-(2-(benzyloxy)pyridin-4-yl)-2,3-dihydro-1H-inden-4-yl)-5-(methylsulfonyl)-4H-1,2,4-triazol-3-amine]
≤ 1 µM	CC(=O)c1c2c(c(Nc3nnc(S(=O)(=O)N4CCC(N(C)C)CC4)[nH]3)c3c1CCC3)CCC2 [Example 232, 1-(8-((5-((4-(dimethylamino)piperidin-1-yl)sulfonyl)-4H-1,2,4-triazol-3-yl)amino)-1,2,3,5,6,7-hexahydro-s-indacen-4-yl)ethan-1-one]
≤ 5 µM	O=S(=O)(c1ccncc1)c1nnc(Nc2c3c(cc4c2CCC4)CCC3)[nH]1 [Example 171, N-(1,2,3,5,6,7-hexahydro-s-indacen-4-yl)-5-(pyridin-4-ylsulfonyl)-4H-1,2,4-triazol-3-amine]
≤ 10 µM	CN(C)C1CCN(S(=O)(=O)c2nnc(Nc3c(-c4ccnn4C)ccc4c3CCC4)[nH]2)CC1 [Example 205, N,N-dimethyl-1-((5-((5-(1-methyl-1H-pyrazol-5-yl)-2,3-dihydro-1H-inden-4-yl)amino)-4H-1,2,4-triazol-3-yl)sulfonyl)piperidin-4-amine]
≤ 5 µM	O=S(=O)(c1ccnnc1)c1n[nH]c(Nc2c3c(cc4c2CCC4)CCC3)n1 [Example 168, N-(1,2,3,5,6,7-hexahydro-s-indacen-4-yl)-3-(pyridazin-4-ylsulfonyl)-1H-1,2,4-triazol-5-amine]
≤ 5 µM	COc1cc(-c2cccc(C(C)C)c2Oc2nnc(S(=O)(=O)N3CCC(N(C)C)CC3)[nH]2)ccn1 [Example 243, 1-((5-(2-isopropyl-6-(2-methoxypyridin-4-yl)phenoxy)-4H-1,2,4-triazol-3-yl)sulfonyl)-N,N-dimethylpiperidin-4-amine]
≤ 0.5 µM	O=S(=O)(c1ccn(C2CC2)n1)c1nnc(Nc2c3c(cc4c2CCC4)CCC3)[nH]1 [Example 354, 5-((1-cyclopropyl-1H-pyrazol-3-yl)sulfonyl)-N-(1,2,3,5,6,7-hexahydro-s-indacen-4-yl)-4H-1,2,4-triazol-3-amine]
≤ 10 µM	C[C@@H](CN(C)C)NS(=O)(=O)c1nnc(Nc2c3c(cc4c2CCC4)CCC3)[nH]1 [Example 106, (S)—N-(1-(dimethylamino)propan-2-yl)-5-((1,2,3,5,6,7-hexahydro-s-indacen-4-yl)amino)-4H-1,2,4-triazole-3-sulfonamide]
≤ 5 µM	O=S(=O)(c1nnc(Nc2c3c(cc4c2CCC4)CCC3)[nH]1)N1CCC2(COC2)C1 [Example 333, 5-(2-oxa-6-azaspiro[3.4]octan-6-ylsulfonyl)-N-(1,2,3,5,6,7-hexahydro-s-indacen-4-yl)-4H-1,2,4-triazol-3-amine]
